Measurements from PubChem BioAssay (NCI).
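Exposure lasted 48 hours, with cells grown in 96-well plates and compounds tested at five concentrations. Definition used: TGI = concentration required for complete inhibition of growth.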

What was measured:
Experiment in all cases: inhibition of tumour cell growth, NCI panel, 48 h
786-0 renal = system: 786-0 renal
A549 NSCLC = system: A549 NSCLC
CAKI-1 renal = system: CAKI-1 renal
CCRF-CEM leukemia = system: CCRF-CEM leukemia
HCC-2998 colon = system: HCC-2998 colon
HCT-116 colon = system: HCT-116 colon
HS 578T breast = system: HS 578T breast
HT29 colon = system: HT29 colon
K-562 leukemia = system: K-562 leukemia
MCF7 breast = system: MCF7 breast
OVCAR-3 ovarian = system: OVCAR-3 ovarian
PC-3 prostate = system: PC-3 prostate
SF-268 CNS = system: SF-268 CNS
SNB-19 CNS = system: SNB-19 CNS
SW-620 colon = system: SW-620 colon
TK-10 renal = system: TK-10 renal
BT-549 breast = system: BT-549 breast

| SMILES | TGI (786-0 renal) [µM] | TGI (A549 NSCLC) [µM] | TGI (CAKI-1 renal) [µM] | TGI (CCRF-CEM leukemia) [µM] | TGI (HCC-2998 colon) [µM] | TGI (HCT-116 colon) [µM] | TGI (HS 578T breast) [µM] | TGI (HT29 colon) [µM] | TGI (K-562 leukemia) [µM] | TGI (MCF7 breast) [µM] | TGI (OVCAR-3 ovarian) [µM] | TGI (PC-3 prostate) [µM] | TGI (SF-268 CNS) [µM] | TGI (SNB-19 CNS) [µM] | TGI (SW-620 colon) [µM] | TGI (TK-10 renal) [µM] | TGI (BT-549 breast) [µM] |
| --- | --- | --- | --- | --- | --- | --- | --- | --- | --- | --- | --- | --- | --- | --- | --- | --- | --- |
| O=Cc1c2c(cc3c1CC1(C3)Cc3cc4c(c(C=O)c3C1)CCCC4)CCCC2 | > 31.6 | > 31.6 | > 100 | 30.2 | > 31.6 | > 31.6 | > 31.6 | > 31.6 | 54.1 | > 31.6 | > 31.6 | > 31.6 | > 100 | > 100 | > 100 | > 31.6 | – |
| CC(NC(=O)Cc1ccc(OP(=O)(OCc2ccc([N+](=O)[O-])o2)N(C)CCCCCl)cc1)c1ccc(OCC2CCCCC2)c(C(N)=O)c1 (configuration not stated) | 10.8 | 4.68 | 20.7 | 6.14 | 2.98 | 4.52 | – | 3.18 | 9.23 | 6.75 | 3.75 | 19.6 | 6.27 | 22.1 | 10.2 | 15.6 | – |
| Oc1cc(O)c2c(c1)O[C@H](c1ccc(O)c(O)c1)[C@@H](O)C2 | > 100 | > 100 | > 100 | > 100 | > 100 | > 100 | > 100 | > 100 | > 100 | > 100 | > 100 | > 100 | > 100 | > 100 | > 100 | > 100 | – |
| C[N+]1=C(c2cccnc2/C=N/O)OCC1(C)C | > 100 | > 100 | > 100 | > 100 | > 100 | > 100 | – | > 100 | > 100 | – | > 100 | – | > 100 | > 100 | > 100 | > 100 | – |
| O=C(Nc1cccc(C(F)(F)F)c1)C(=O)C(C(=O)c1ccc(Cl)c(Cl)c1)C1OC(=O)c2ccccc21 (configuration not stated) | > 100 | > 100 | > 100 | > 100 | > 100 | 34.7 | – | > 100 | > 100 | – | > 100 | – | > 100 | > 100 | > 100 | > 100 | – |
| CCCCn1c(-c2ccccc2)cs/c1=N\N=C1C=C(C(C)(C)C)C(=O)C(C(C)(C)C)=C1 | > 100 | > 100 | > 100 | > 100 | > 100 | > 100 | – | > 100 | > 100 | – | > 100 | – | > 100 | > 100 | > 100 | > 100 | – |
| CCOC(=O)/C=C/n1c2ccccc2c(=O)c2cc(OC)ccc21 | > 100 | > 100 | > 100 | > 100 | > 100 | > 100 | – | > 100 | > 100 | – | > 100 | – | > 100 | > 100 | – | > 100 | – |
| O=C1NC(=O)C(C(=O)C(=O)Nc2cc(Cl)ccc2Cl)C(=O)N1 | > 100 | > 100 | – | > 100 | > 100 | > 100 | – | – | > 100 | – | > 100 | – | > 100 | > 100 | > 100 | > 100 | – |
| Cc1ccc2nc(N)[nH]c(=O)c2c1Sc1ccncc1 | > 100 | > 100 | > 100 | > 100 | > 100 | > 100 | – | > 100 | > 31.6 | – | > 100 | – | > 100 | > 100 | > 100 | > 100 | – |
| N#C/C(=C\c1ccc(O)c(O)c1)c1c(C#N)c(N)nn1-c1ccccc1 | 21.1 | 39.3 | 9.05 | 37.5 | 26.4 | 19.6 | – | 65.8 | 55.9 | – | 6.63 | – | > 100 | 42.4 | > 100 | > 100 | – |
| c1ccc2c(c1)nnn2CNc1ccc(N2CCCCC2)cc1 | > 100 | > 100 | – | > 100 | > 100 | > 100 | – | > 100 | > 100 | – | > 100 | – | > 100 | > 100 | > 100 | > 100 | – |
| COc1ccc(CN(CCN(C)C)c2ccccn2)cc1 (tested in a mixture with another compound) | > 100 | – | > 100 | > 100 | – | – | – | > 100 | > 100 | – | > 100 | – | > 100 | > 100 | > 100 | > 100 | – |
| Nc1cn(C2OC(CC(c3ccccc3)(c3ccccc3)c3ccccc3)C(O)C2O)c(=O)[nH]c1=O (configuration not stated) | 59.1 | 83.1 | 57.1 | 63.1 | 64.4 | 32 | – | 58.8 | 54.4 | – | 37.9 | – | > 100 | > 100 | 28 | 96.2 | – |
| NC(CCSCC(F)(F)F)C(=O)O (configuration not stated) | > 100 | > 100 | > 100 | > 100 | > 100 | > 100 | – | > 100 | > 100 | – | > 100 | – | > 100 | > 100 | > 100 | > 100 | – |
| Oc1ccc(-c2c3ccccc3c(-c3ccc(O)cc3)c3ccccc23)cc1 | > 100 | > 100 | > 100 | > 100 | > 100 | > 100 | – | > 100 | > 100 | – | > 100 | – | > 100 | > 100 | > 100 | > 100 | – |
| CN1C(=O)c2ccccc2C(O)(c2ccccc2)C1(O)c1ccccc1 (configuration not stated) | > 100 | > 100 | > 100 | > 100 | > 100 | > 100 | > 100 | > 100 | > 100 | – | > 100 | > 100 | > 100 | > 100 | > 100 | > 100 | > 100 |
